What all share (format): functional
One experiment relates to A549. The experiment in a line: Cytotoxicity against human A549 cells after 72 hrs by sulforhodamine B assay. The settings on record: A549, 72 h; for CC50: read-out: LC50 (the source's name). (In SRB staining, fixed cells bind dye roughly in proportion to their protein.)
The test system of the next experiment is HT-29. As to the kind of experiment: Cytotoxicity against human HT-29 cells after 72 hrs by sulforhodamine B assay. The settings on record: HT-29, 72 h; for CC50: read-out: LC50 (the source's name).
A further experiment relates to MDA-MB-231. As to the kind of experiment: Cytotoxicity against human MDA-MB-231 cells after 72 hrs by sulforhodamine B assay. The conditions noted are these: MDA-MB-231, 72 h.

SMILES strings stand for the structures. Positions of bridges follow the written chain, without caps; N, C: chain ends. Non-standard residues stand in square brackets, D forms with d. Residues, ends and D or L forms follow the SMILES beside them. Chains are numbered I, II in the order given. *: point of attachment. Quinoxaline2carbonyl = O=C(c1cnc2ccccc2n1)*; NMeV = CN[C@H](C(=O)O)C(C)C; NMeC = CN[C@@H](CS)C(=O)O

As for `CN1C[C@@H](NC(=O)c2nc3ccccc3cc2O)C(=O)NCC(=O)N(C)[C@H]2CSSC[C@@H](C(=O)N(C)[C@@H](CCN)C1=O)N(C)C(=O)CNC(=O)[C@H](NC(=O)c1nc3ccccc3cc1O)CN(C)C(=O)[C@H](CCN)N(C)C2=O`, in the experiment on A549, halving of growth (GI50) required 8.95 µM, net growth stopped (TGI) at 8.95 µM and the CC50 was 8.95 µM. In the experiment with HT-29, growth was halved (GI50) at 8.95 µM, total growth inhibition (TGI) required 8.95 µM and the CC50 was found to be 8.95 µM. In the experiment on MDA-MB-231, this compound showed a GI50 of 8.95 µM, an LC50 (concentration killing 50% of cells) of 8.95 µM and a total growth inhibition concentration (TGI) of 8.95 µM.

As for `CSC[C@H]1C(=O)N(C)C[C@@H](NC(=O)c2cnc3ccccc3n2)C(=O)NCC(=O)N(C)[C@H]2CSSC[C@@H](C(=O)N1C)N(C)C(=O)CNC(=O)[C@H](NC(=O)c1cnc3ccccc3n1)CN(C)C(=O)[C@H](CSC)N(C)C2=O`, in the experiment on A549, halving of growth (GI50) required 0.0713 µM, the TGI is greater than 8.92 µM and the CC50 is greater than 8.92 µM. Moreover, in the experiment on HT-29, the GI50 was 0.357 µM, the TGI is greater than 8.92 µM and the CC50 was greater than 8.92 µM. In the experiment with MDA-MB-231, this compound gave a GI50 of 0.0473 µM, an LC50 (concentration killing 50% of cells) greater than 8.92 µM and a TGI of 1.43 µM.

In the case of `CSC[C@H]1C(=O)SC[C@@H](NC(=O)c2nc3ccccc3cc2O)C(=O)NCC(=O)N(C)[C@H]2SSC[C@@H](C(=O)N1C)N(C)C(=O)CNC(=O)[C@H](NC(=O)c1nc3ccccc3cc1O)CSC(=O)[C@H](CSC)N(C)C2=O` [THIOCORALINE], in the experiment with A549, the 50% growth inhibitory concentration (GI50) worked out at 0.00622 µM, the total growth inhibition concentration (TGI) was found to be 0.0242 µM and the CC50 came to 0.095 µM. Besides, the CC50 in the experiment with HT-29 stood at 0.138 µM. In the experiment on MDA-MB-231, it took 0.00207 µM to inhibit growth by half (GI50), the LC50 (concentration killing 50% of cells) worked out at 0.0346 µM and the TGI worked out at 0.0095 µM.

Consider `COCCOCCOCC(=O)NCC[C@H]1C(=O)N(C)C[C@@H](NC(=O)c2nc3ccccc3cc2O)C(=O)NCC(=O)N(C)[C@H]2CSSC[C@@H](C(=O)N1C)N(C)C(=O)CNC(=O)[C@H](NC(=O)c1nc3ccccc3cc1O)CN(C)C(=O)[C@H](CCNC(=O)COCCOCCOC)N(C)C2=O`, for which, in the experiment on A549, the GI50 was greater than 6.96 µM, the TGI was greater than 6.96 µM and the CC50 is greater than 6.96 µM. Further, in the experiment on HT-29, the 50% growth inhibitory concentration (GI50) was greater than 6.96 µM, the TGI was greater than 6.96 µM and the CC50 is greater than 6.96 µM. In the experiment on MDA-MB-231, this compound displayed a concentration for 50% growth inhibition (GI50) greater than 6.96 µM, an LC50 (concentration killing 50% of cells) greater than 6.96 µM and a TGI greater than 6.96 µM.

Turning to `CSC[C@H]1C(=O)OC[C@@H](NC(=O)c2nc3ccccc3cc2O)C(=O)NCC(=O)N(C)[C@H]2CSSC[C@@H](C(=O)N1C)N(C)C(=O)CNC(=O)[C@H](NC(=O)c1nc3ccccc3cc1O)COC(=O)[C@H](CSC)N(C)C2=O`, in the experiment with A549, growth was halved (GI50) at 0.311 µM, net growth stopped (TGI) at 2.75 µM and the CC50 came to 7.91 µM. Moreover, in the experiment on HT-29, it took 0.4 µM to inhibit growth by half (GI50), total growth inhibition (TGI) required 3.55 µM and the CC50 was found to be 7.55 µM. In the experiment with MDA-MB-231, this compound displayed a GI50 of 0.462 µM, an LC50 (concentration killing 50% of cells) of 6.4 µM and a TGI of 2.75 µM.

In the case of `CC(C)[C@H]1C(=O)N(C)C[C@@H](NC(=O)c2cnc3ccccc3n2)C(=O)N[C@@H](C)C(=O)N(C)[C@H]2CSSC[C@@H](C(=O)N1C)N(C)C(=O)[C@H](C)NC(=O)[C@H](NC(=O)c1cnc3ccccc3n1)CN(C)C(=O)[C@H](C(C)C)N(C)C2=O`, in the experiment on A549, the GI50 is greater than 8.98 µM, the TGI was greater than 8.98 µM and the CC50 is greater than 8.98 µM. Also, in the experiment on HT-29, halving of growth (GI50) required 8.44 µM, the TGI is greater than 8.98 µM and the CC50 was greater than 8.98 µM. In the experiment on MDA-MB-231, this compound registered a GI50 of 5.93 µM, an LC50 (concentration killing 50% of cells) greater than 8.98 µM and a concentration for total growth inhibition (TGI) greater than 8.98 µM.

For `CC(C)[C@H]1C(=O)OC[C@@H](NC(=O)c2nc3ccccc3cc2O)C(=O)N[C@@H](C)C(=O)N(C)[C@H]2CSSC[C@@H](C(=O)N1C)N(C)C(=O)[C@H](C)NC(=O)[C@H](NC(=O)c1nc3ccccc3cc1O)COC(=O)[C@H](C(C)C)N(C)C2=O`, in the experiment with A549, the GI50 was greater than 8.92 µM, the TGI was greater than 8.92 µM and the CC50 was greater than 8.92 µM. In the experiment on HT-29, the GI50 is greater than 8.92 µM, the TGI is greater than 8.92 µM and the CC50 is greater than 8.92 µM. Also, in the experiment with MDA-MB-231, the GI50 was greater than 8.92 µM, the LC50 (concentration killing 50% of cells) was greater than 8.92 µM and the TGI is greater than 8.92 µM.

On to `CN1C[C@@H](NC(=O)c2nc3ccccc3cc2O)C(=O)NCC(=O)N(C)[C@H]2CSSC[C@@H](C(=O)N(C)[C@@H](CN)C1=O)N(C)C(=O)CNC(=O)[C@H](NC(=O)c1nc3ccccc3cc1O)CN(C)C(=O)[C@H](CN)N(C)C2=O`, for which, in the experiment on A549, growth was halved (GI50) at 8.95 µM, net growth stopped (TGI) at 8.95 µM and the CC50 is 8.95 µM. Also, in the experiment on HT-29, the GI50 turned out to be 8.95 µM, the TGI came to 8.95 µM and the CC50 is 8.95 µM. Further, in the experiment with MDA-MB-231, halving of growth (GI50) required 8.95 µM, the LC50 (concentration killing 50% of cells) was 8.95 µM and the TGI was 8.95 µM.

As for `CSC[C@H]1C(=O)N(C)C[C@@H](NC(=O)c2nc3ccccc3cc2O)C(=O)NCC(=O)N(C)[C@H]2CSSC[C@@H](C(=O)N1C)N(C)C(=O)CNC(=O)[C@H](NC(=O)c1nc3ccccc3cc1O)CN(C)C(=O)[C@H](CSC)N(C)C2=O`, in the experiment on A549, the GI50 is 0.00339 µM, the TGI amounted to 0.02 µM and the CC50 turned out to be 0.165 µM. Besides, the CC50 in the experiment on HT-29 came out at 0.747 µM. Also, in the experiment on MDA-MB-231, the GI50 was determined as 0.00408 µM, the LC50 (concentration killing 50% of cells) was determined as 0.373 µM and the TGI amounted to 0.0426 µM.

With `CC(C)[C@H]1C(=O)OC[C@@H](NC(=O)c2cnc3ccccc3n2)C(=O)N[C@@H](C)C(=O)N(C)[C@H]2CSSC[C@@H](C(=O)N1C)N(C)C(=O)[C@H](C)NC(=O)[C@H](NC(=O)c1cnc3ccccc3n1)COC(=O)[C@H](C(C)C)N(C)C2=O` [TRIOSTIN] (I: Quinoxaline2carbonyl-[dS]A[NMeC][NMeV] / II: Quinoxaline2carbonyl-[dS]A[NMeC][NMeV]; ester I:1-II:C, I:C-II:1; disulfide I:3-II:3), in the experiment with A549, the GI50 stood at 0.34 µM, the TGI was determined as 1.66 µM and the CC50 is greater than 9.2 µM. For the same compound, in the experiment with HT-29, it took 0.23 µM to inhibit growth by half (GI50), the TGI is 2.85 µM and the CC50 was greater than 9.2 µM. In the experiment on MDA-MB-231, this compound registered a GI50 of 0.202 µM, an LC50 (concentration killing 50% of cells) of 1.56 µM and a TGI of 0.515 µM.

Regarding `COCCOCCOCC(=O)NC[C@H]1C(=O)N(C)C[C@@H](NC(=O)c2nc3ccccc3cc2O)C(=O)NCC(=O)N(C)[C@H]2CSSC[C@@H](C(=O)N1C)N(C)C(=O)CNC(=O)[C@H](NC(=O)c1nc3ccccc3cc1O)CN(C)C(=O)[C@H](CNC(=O)COCCOCCOC)N(C)C2=O`, in the experiment with A549, the GI50 was greater than 7.09 µM, the TGI is greater than 7.09 µM and the CC50 is greater than 7.09 µM. For the same compound, in the experiment with HT-29, the GI50 is greater than 7.09 µM, the TGI was greater than 7.09 µM and the CC50 was greater than 7.09 µM. In the experiment on MDA-MB-231, this compound returned a GI50 greater than 7.09 µM, an LC50 (concentration killing 50% of cells) greater than 7.09 µM and a TGI greater than 7.09 µM.

For orientation: GI50 means the concentration that inhibits growth by half. A lower GI50 goes with greater sensitivity of the cells. What is called TGI is the concentration at which net growth stops.

The values are drawn from ChEMBL document CHEMBL2396558, “Orthogonal chemistry for the synthesis of thiocoraline-triostin hybrids. Exploring their structure-activity relationship” (2013).
